Reference: patent publication US20020077350A1 (Ashni Naturaceuticals, Inc., priority 2000, published 2002)
Entries after “also recorded” stand apart in the source; their conditions may differ.

How the values were obtained:
COX-2 = type: cell-based, human; settings: Jurkat cells, with and without arachidonic acid or arachidonic acid not specified
Description: COX-2 is inducible in the Jurkat cell by PMA.
Cell plating: The Jurkat cells are propagated in suspension according to the instructions of the supplier. For experimentation, cells are seeded from a log-phase culture at a density of 1×10^5 cells per mL in 100 mm plates, 20 mL per plate, 3 plates per treatment. Serum concentration in the test medium is maintained at 0.5%.
Complete transfers are accomplished in 25-30 minutes at 500 mA. Membranes used for blotting are blocked by incubating in TBS (Tris buffered saline, 50 mM tris, 150 mM NaCl, pH 7.5) containing 5% nonfat dry milk for 30 minutes at room temperature. COX-2 protein is visualized by incubation of the blots with the anti-COX-2 antibody in TBST (0.5% Tween 20 in TBS) for two hours and then a second incubation at room temperature with alkaline phosphatase-conjugated secondary antibody diluted 1:1000 in TBST for two hours. The enzymatic reaction is developed for 15 minutes. The molecular weight of COX-2 is estimated by adding a molecular weight standard to reference lanes and staining the membrane filters with amido black 10B.
Blots are translated into TIFF-formatted files with a Microtech 600GS scanner and quantified using Scan Analysis (BIOSOFT, Cambridge UK). Summary scans are then printed and peak heights are measured directly from the figure. One density unit (Du) is defined as one mm of the resulting peak height.
Appropriate controls receive solvent only. […] Twenty-four hours after treatment, the cells are harvested, lysed and western blotting is done for the determination of COX-2 protein expression.

[1] = gastrointestinal disturbance, nausea and vomiting, hypotension, edema; cited from earlier work

Compound	inhibition of COX-2 enzyme protein expression (COX-2)	patients showing some type of side effects [1]
C=C1CC[C@@H]2[C@](C)(CO)[C@H](O)CC[C@@]2(C)[C@@H]1C/C=C1/C(=O)OC[C@H]1O [Andrographolide]	does not inhibit; also recorded: little effect	
CC1(C)CC[C@]2(C(=O)O)CC[C@]3(C)C(=CC[C@@H]4[C@@]5(C)CC[C@H](O)C(C)(C)[C@@H]5CC[C@]43C)[C@@H]2C1 [Oleanolic acid]	does not inhibit	
CC(C)[C@]12O[C@H]1[C@@H]1O[C@]13[C@]1(O[C@H]1C[C@H]1C4=C(CC[C@@]13C)C(=O)OC4)[C@@H]2O [Triptolide]		Approximately 28%
C[C@H]1[C@H](C)CC[C@]2(C(=O)O)CC[C@]3(C)C(=CC[C@@H]4[C@@]5(C)CC[C@H](O)C(C)(C)[C@@H]5CC[C@]43C)[C@H]12 [Ursolic acid]	does not inhibit	
